According to US6465395B2, “Substituted methylene pyrazolinones and the herbicidal use thereof” (BASF Aktiengesellschaft, priority 2000, dated 2002):

Experiments:
Format in all cases: in vivo
Set-up in all cases: scale not given here
[1] = system: ABUTH, Velvetleaf, Abutilon theophrasti, Medic.; experiment: Postemergence herbicidal evaluation
Protocol: (§1) The postemergence herbicidal activity of the compounds of the present invention is evaluated by the following tests. Seedling plants are grown in jiffy flats for about two weeks. The test compounds are dispersed in 80/20 (v/v) acetone/water mixtures containing 1.0% SUN-IT®II, a methylated seed oil, in sufficient quantities to provide the equivalent of about 0.006 kg/ha to 0.800 kg/ha of active compound when applied to the plants through a spray nozzle operating at 40 psi for a predetermined time. After spraying, the plants are placed on greenhouse benches and are cared for in accordance with conventional greenhouse procedures. Approximately two to three weeks after treatment, the seedling plants are examined and rated according to the rating system set forth below. Where more than one test is involved for a given compound, the data are averaged.

[2] = system: AMBEL, Ragweed, Ambrosia artemisifolia, L.; experiment: Postemergence herbicidal evaluation
Protocol: as §1

[3] = system: SETVI, Foxtail, Green, Setaria viridis, (L.) Beau; experiment: Postemergence herbicidal evaluation
Protocol: as §1

[4] = system: ORYSAT, Rice, Tebonnet, Oryza sativa, (L.) Tebonnet; experiment: Postemergence herbicidal evaluation; details: crop (rice)
Protocol: as §1

[5] = system: PANDI, Panicum, Fall, Panicum dichotomiflorum, Michx; experiment: Postemergence herbicidal evaluation
Protocol: as §1

[6] = system: ZEAMX, Corn, Field, Zea mays, L.; experiment: Postemergence herbicidal evaluation; details: crop (corn)
Protocol: as §1

[7] = system: IPOSS, Morningglory spp., Ipomoea spp.; experiment: Postemergence herbicidal evaluation
Protocol: as §1

[8] = system: ECHCG, Barnyardgrass, Echinochloa crus-galli, (L.) Beau; experiment: Postemergence herbicidal evaluation
Protocol: as §1

[9] = system: GOSHI, Cotton, Gossypium hirsutum, L.; experiment: Preemergence herbicidal evaluation; details: crop (cotton)
Description: (§2) The preemergence herbicidal activity of the test compounds of the present invention is exemplified by the following tests in which the seeds of a variety of monocotyledonous and dicotyledonous plants are separately mixed with potting soil and planted on top of approximately one inch of soil in separate pint cups. After planting, the cups are sprayed with the selected aqueous acetone solution containing test compound in sufficient quantity to provide the equivalent of about 0.0125 kg/ha to 0.800 kg/ha of test compound per cup. The treated cups are then placed on greenhouse benches, watered and cared for in accordance with conventional greenhouse procedures. Approximately two to four weeks after treatment, the tests are terminated and each cup is examined and rated according to the rating system provided in Example 12. When more than one test is performed for a given compound, the data are averaged.

[10] = system: ABUTH, Velvetleaf, Abutilon theophrasti, Medic.; experiment: Preemergence herbicidal evaluation
Description: as §2

[11] = system: AMBEL, Ragweed, Ambrosia artemisifolia, L.; experiment: Preemergence herbicidal evaluation
Description: as §2

[12] = system: SETVI, Foxtail, Green, Setaria viridis, (L.) Beau; experiment: Preemergence herbicidal evaluation
Description: as §2

[13] = system: ORYSAT, Rice, Tebonnet, Oryza sativa, (L.) Tebonnet; experiment: Preemergence herbicidal evaluation; details: crop (rice)
Description: as §2

[14] = system: CHEAL, Lambsquarters, Chenopodium album, L.; experiment: Preemergence herbicidal evaluation
Description: as §2

[15] = system: PANDI, Panicum, Fall, Panicum dichotomiflorum, Michx; experiment: Preemergence herbicidal evaluation
Description: as §2

[16] = system: ZEAMX, Corn, Field, Zea mays, L.; experiment: Preemergence herbicidal evaluation; details: crop (corn)
Description: as §2

[17] = system: IPOSS, Morningglory spp., Ipomoea spp.; experiment: Preemergence herbicidal evaluation
Description: as §2

[18] = system: ECHCG, Barnyardgrass, Echinochloa crus-galli, (L.) Beau; experiment: Preemergence herbicidal evaluation
Description: as §2

4,4′-[(Z,Z)-Dithiobis[(2,3-dihydro-3,3,4-trimethylbenzo[b]thien-5-yl)methylidyne]]bis[1-methyl-2-pyrazolin-5-one] S,S,S′,S′,-tetraoxide, 80:20 mixture with 4,4′-[(E,Z)-dithiobis[(2,3-dihydro-3,3,4-trimethyl-benzo[b]thien-5-yl)methylidyne]]bis[1-methyl-2-pyrazolin-5-one] S,S,S′,S′-tetraoxide [Example 7]
Herbicide rating ABUTH ([1]; 0.0125 kg/ha): 3.0
Herbicide rating ABUTH ([1]; 0.0250 kg/ha): 4.0
Herbicide rating ABUTH ([1]; 0.0500 kg/ha): 5.0
Herbicide rating ABUTH ([1]; 0.1000 kg/ha): 7.0
Herbicide rating AMBEL ([2]; 0.0125 kg/ha): 4.0
Herbicide rating AMBEL ([2]; 0.0250 kg/ha): 7.0
Herbicide rating AMBEL ([2]; 0.0500 kg/ha): 9.0
Herbicide rating AMBEL ([2]; 0.1000 kg/ha): 9.0
Herbicide rating SETVI ([3]; 0.0125 kg/ha): 7.0
Herbicide rating SETVI ([3]; 0.0250 kg/ha): 7.0
Herbicide rating SETVI ([3]; 0.0500 kg/ha): 9.0
Herbicide rating SETVI ([3]; 0.1000 kg/ha): 9.0
Herbicide rating ORYSAT ([4]; 0.0125 kg/ha): 3.5
Herbicide rating ORYSAT ([4]; 0.0250 kg/ha): 6.0
Herbicide rating ORYSAT ([4]; 0.0500 kg/ha): 7.0
Herbicide rating ORYSAT ([4]; 0.1000 kg/ha): 7.0
Herbicide rating PANDI ([5]; 0.0125 kg/ha): 5.0
Herbicide rating PANDI ([5]; 0.0250 kg/ha): 3.0
Herbicide rating PANDI ([5]; 0.0500 kg/ha): 7.0
Herbicide rating PANDI ([5]; 0.1000 kg/ha): 9.0
Herbicide rating ZEAMX ([6]; 0.0125 kg/ha): 0.0
Herbicide rating ZEAMX ([6]; 0.0250 kg/ha): 0.0
Herbicide rating ZEAMX ([6]; 0.0500 kg/ha): 0.0
Herbicide rating ZEAMX ([6]; 0.1000 kg/ha): 2.0
Herbicide rating IPOSS ([7]; 0.0125 kg/ha): 1.0
Herbicide rating IPOSS ([7]; 0.0250 kg/ha): 1.0
Herbicide rating IPOSS ([7]; 0.0500 kg/ha): 2.0
Herbicide rating IPOSS ([7]; 0.1000 kg/ha): 2.0
Herbicide rating ECHCG ([8]; 0.0125 kg/ha): 7.0
Herbicide rating ECHCG ([8]; 0.0250 kg/ha): 7.0
Herbicide rating ECHCG ([8]; 0.0500 kg/ha): 8.0
Herbicide rating ECHCG ([8]; 0.1000 kg/ha): 9.0

4-Methoximino-5-methyl-6-(1-ethyl-5-hydroxypyrazol-4-yl)thiocarbonylthiochroman-1,1-dioxide, zinc (+2) chelate [Example 6]
Herbicide rating GOSHI ([9]; 0.0500 kg/ha): 0.0
Herbicide rating GOSHI ([9]; 0.1000 kg/ha): 1.0
Herbicide rating GOSHI ([9]; 0.2000 kg/ha): 6.0
Herbicide rating GOSHI ([9]; 0.4000 kg/ha): 8.0
Herbicide rating GOSHI ([9]; 0.8000 kg/ha): 7.0
Herbicide rating ABUTH ([10]; 0.0500 kg/ha): 9.0
Herbicide rating ABUTH ([10]; 0.1000 kg/ha): 9.0
Herbicide rating ABUTH ([10]; 0.2000 kg/ha): 9.0
Herbicide rating ABUTH ([10]; 0.4000 kg/ha): 9.0
Herbicide rating ABUTH ([10]; 0.8000 kg/ha): 9.0
Herbicide rating AMBEL ([11]; 0.0500 kg/ha): 7.0
Herbicide rating AMBEL ([11]; 0.1000 kg/ha): 8.0
Herbicide rating AMBEL ([11]; 0.2000 kg/ha): 9.0
Herbicide rating AMBEL ([11]; 0.4000 kg/ha): 9.0
Herbicide rating AMBEL ([11]; 0.8000 kg/ha): 9.0
Herbicide rating SETVI ([12]; 0.0500 kg/ha): 4.0
Herbicide rating SETVI ([12]; 0.1000 kg/ha): 7.0
Herbicide rating SETVI ([12]; 0.2000 kg/ha): 9.0
Herbicide rating SETVI ([12]; 0.4000 kg/ha): 9.0
Herbicide rating SETVI ([12]; 0.8000 kg/ha): 9.0
Herbicide rating ORYSAT ([13]; 0.0500 kg/ha): 4.0
Herbicide rating ORYSAT ([13]; 0.1000 kg/ha): 7.0
Herbicide rating ORYSAT ([13]; 0.2000 kg/ha): 9.0
Herbicide rating ORYSAT ([13]; 0.4000 kg/ha): 9.0
Herbicide rating ORYSAT ([13]; 0.8000 kg/ha): 9.0
Herbicide rating CHEAL ([14]; 0.0500 kg/ha): 9.0
Herbicide rating CHEAL ([14]; 0.1000 kg/ha): 9.0
Herbicide rating CHEAL ([14]; 0.2000 kg/ha): 9.0
Herbicide rating CHEAL ([14]; 0.4000 kg/ha): 9.0
Herbicide rating CHEAL ([14]; 0.8000 kg/ha): 9.0
Herbicide rating PANDI ([15]; 0.0500 kg/ha): 6.0
Herbicide rating PANDI ([15]; 0.1000 kg/ha): 9.0
Herbicide rating PANDI ([15]; 0.2000 kg/ha): 9.0
Herbicide rating PANDI ([15]; 0.4000 kg/ha): 8.0
Herbicide rating PANDI ([15]; 0.8000 kg/ha): 8.0
Herbicide rating ZEAMX ([16]; 0.0500 kg/ha): 0.0
Herbicide rating ZEAMX ([16]; 0.1000 kg/ha): 0.0
Herbicide rating ZEAMX ([16]; 0.2000 kg/ha): 0.0
Herbicide rating ZEAMX ([16]; 0.4000 kg/ha): 1.0
Herbicide rating ZEAMX ([16]; 0.8000 kg/ha): 0.0
Herbicide rating IPOSS ([17]; 0.0500 kg/ha): 1.0
Herbicide rating IPOSS ([17]; 0.1000 kg/ha): 3.0
Herbicide rating IPOSS ([17]; 0.2000 kg/ha): 6.0
Herbicide rating IPOSS ([17]; 0.4000 kg/ha): 5.0
Herbicide rating IPOSS ([17]; 0.8000 kg/ha): 5.0
Herbicide rating ECHCG ([18]; 0.0500 kg/ha): 3.0
Herbicide rating ECHCG ([18]; 0.1000 kg/ha): 9.0
Herbicide rating ECHCG ([18]; 0.2000 kg/ha): 9.0
Herbicide rating ECHCG ([18]; 0.4000 kg/ha): 9.0
Herbicide rating ECHCG ([18]; 0.8000 kg/ha): 8.0
